Reference: ChEMBL document CHEMBL1201862, “PubChem BioAssay data set” (2004)
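1) Cells in 96-well plates. 2) Compound, 48 h, 5 concentrations. 3) Linear interpolation between surrounding doses. 4) Unreached endpoint = highest concentration. GI50: concentration for 50% inhibition of growth.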 Active and inactive are the calls of the source. Rule as the data show it: active = GI50 up to about 1.1 µM and inactive = higher.

Tests used:
Assay in all cases: NCI-60 cell line screen, 48 h
786-0 = test system: 786-0
ACHN = test system: ACHN
BT-549 = test system: BT-549
COLO 205 = test system: COLO 205
HCC 2998 = test system: HCC 2998
LOX IMVI = test system: LOX IMVI
MCF7 = test system: MCF7
MDA-MB-231 = test system: MDA-MB-231
MDA-MB-435 = test system: MDA-MB-435
MDA-N = test system: MDA-N
OVCAR-3 = test system: OVCAR-3
RPMI-8226 = test system: RPMI-8226
SK-MEL-5 = test system: SK-MEL-5
SN12C = test system: SN12C
TK-10 = test system: TK-10
HT-29 = test system: HT-29
Hs-578T = test system: Hs-578T
Malme-3M = test system: Malme-3M
SF-268 = test system: SF-268

| SMILES | GI50 (786-0) | GI50 (ACHN) | GI50 (BT-549) | GI50 (COLO 205) | GI50 (HCC 2998) | GI50 (LOX IMVI) | GI50 (MCF7) | GI50 (MDA-MB-231) | GI50 (MDA-MB-435) | GI50 (MDA-N) | GI50 (OVCAR-3) | GI50 (RPMI-8226) | GI50 (SK-MEL-5) | GI50 (SN12C) | GI50 (TK-10) | GI50 (HT-29) | GI50 (Hs-578T) | GI50 (Malme-3M) | GI50 (SF-268) |
| --- | --- | --- | --- | --- | --- | --- | --- | --- | --- | --- | --- | --- | --- | --- | --- | --- | --- | --- | --- |
| CC1=CC[C@@H]2[C@@H](CC[C@@]2(C)O)C(C)(C)[C@H]1CC[C@@H]1[C@@]2(C)CC[C@@H](O)C(C)(C)O[C@@H]2CC[C@]1(C)O | 18.3 µM (inactive) | 23.2 µM (inactive) | 18.4 µM (inactive) | 19.4 µM (inactive) | 17.5 µM (inactive) | 16.3 µM (inactive) | 31 µM (inactive) | 17.5 µM (inactive) | 22.3 µM (inactive) | 22.5 µM (inactive) | 42.8 µM (inactive) | 18.9 µM (inactive) | 13.3 µM (inactive) | 24.9 µM (inactive) | 35.6 µM (inactive) | – | – | – | – |
| O=C(O)c1nc2nc(Cl)c(Cl)nc2[nH]1 | > 100 µM (inactive) | > 100 µM (inactive) | > 100 µM (inactive) | > 100 µM (inactive) | – | > 100 µM (inactive) | > 100 µM (inactive) | > 100 µM (inactive) | > 100 µM (inactive) | > 100 µM (inactive) | > 100 µM (inactive) | > 100 µM (inactive) | > 100 µM (inactive) | > 100 µM (inactive) | > 100 µM (inactive) | > 100 µM (inactive) | > 100 µM (inactive) | > 100 µM (inactive) | > 100 µM (inactive) |
| CN(C)/C=C/c1ccncc1 | > 100 µM (inactive) | > 100 µM (inactive) | > 100 µM (inactive) | > 100 µM (inactive) | > 100 µM (inactive) | > 100 µM (inactive) | > 100 µM (inactive) | > 100 µM (inactive) | > 100 µM (inactive) | > 100 µM (inactive) | > 100 µM (inactive) | > 100 µM (inactive) | > 100 µM (inactive) | > 100 µM (inactive) | > 100 µM (inactive) | > 100 µM (inactive) | – | > 100 µM (inactive) | > 100 µM (inactive) |
| O=C1CCC(Cc2ccc(Cl)cc2Cl)C(=O)N1 (stereo not given) | > 100 µM (inactive) | > 100 µM (inactive) | 28.6 µM (inactive) | > 100 µM (inactive) | – | > 100 µM (inactive) | > 100 µM (inactive) | 51.8 µM (inactive) | > 100 µM (inactive) | – | > 100 µM (inactive) | 79.4 µM (inactive) | > 100 µM (inactive) | > 100 µM (inactive) | > 100 µM (inactive) | > 100 µM (inactive) | 81.5 µM (inactive) | > 100 µM (inactive) | 82.4 µM (inactive) |
| CN1C(=O)C(/C=N/NC(=O)c2cccnc2)C(N)N(C)C1=O (stereo not given) | > 100 µM (inactive) | > 100 µM (inactive) | > 100 µM (inactive) | > 100 µM (inactive) | > 100 µM (inactive) | – | > 100 µM (inactive) | > 100 µM (inactive) | > 100 µM (inactive) | > 100 µM (inactive) | > 100 µM (inactive) | > 100 µM (inactive) | > 100 µM (inactive) | > 100 µM (inactive) | > 100 µM (inactive) | > 100 µM (inactive) | > 100 µM (inactive) | > 100 µM (inactive) | > 100 µM (inactive) |
| O=S(=O)(O)c1ccc2c(/N=N/c3c(O)ccc4ccccc34)cccc2c1 | > 100 µM (inactive) | > 100 µM (inactive) | > 100 µM (inactive) | > 100 µM (inactive) | – | > 100 µM (inactive) | > 100 µM (inactive) | > 100 µM (inactive) | > 100 µM (inactive) | > 100 µM (inactive) | 88.9 µM (inactive) | > 100 µM (inactive) | > 100 µM (inactive) | > 100 µM (inactive) | > 100 µM (inactive) | > 100 µM (inactive) | > 100 µM (inactive) | > 100 µM (inactive) | > 100 µM (inactive) |
| CNC(=S)NNc1ncnc2c1c(-c1ccc(Cl)cc1)cn2-c1ccc(C)cc1 | 9.18 µM (inactive) | 10 µM (inactive) | 14.2 µM (inactive) | 14.3 µM (inactive) | – | 9.38 µM (inactive) | – | 7.8 µM (inactive) | 8.34 µM (inactive) | 8.61 µM (inactive) | 11.5 µM (inactive) | 3.13 µM (inactive) | 5.89 µM (inactive) | 11.1 µM (inactive) | 18.8 µM (inactive) | 14.9 µM (inactive) | 20.9 µM (inactive) | 13.1 µM (inactive) | 10.2 µM (inactive) |
| CC(C)(C)c1cc(-c2ccc(-c3cc(C(C)(C)C)c(O)c(C(C)(C)C)c3)cc2)cc(C(C)(C)C)c1O | > 100 µM (inactive) | > 100 µM (inactive) | > 100 µM (inactive) | > 100 µM (inactive) | – | > 100 µM (inactive) | > 100 µM (inactive) | > 100 µM (inactive) | > 100 µM (inactive) | > 100 µM (inactive) | > 100 µM (inactive) | > 100 µM (inactive) | > 100 µM (inactive) | > 100 µM (inactive) | > 100 µM (inactive) | > 100 µM (inactive) | > 10 µM (inactive) | > 100 µM (inactive) | > 100 µM (inactive) |
| CC(=O)c1sc(Nc2ccc(Cl)c(Cl)c2)nc1C | > 100 µM (inactive) | 70.6 µM (inactive) | > 100 µM (inactive) | > 100 µM (inactive) | > 100 µM (inactive) | > 100 µM (inactive) | 37.9 µM (inactive) | 21 µM (inactive) | > 100 µM (inactive) | > 100 µM (inactive) | 29.8 µM (inactive) | 64.4 µM (inactive) | > 100 µM (inactive) | > 100 µM (inactive) | > 100 µM (inactive) | 76.4 µM (inactive) | – | > 100 µM (inactive) | > 100 µM (inactive) |
| O=C(c1ccc([N+](=O)[O-])cc1)C(Br)C(Br)c1ccnc2ccccc12 (stereo not given) | 2.54 µM (inactive) | 4.61 µM (inactive) | 7.59 µM (inactive) | 13 µM (inactive) | – | 2.11 µM (inactive) | 2.39 µM (inactive) | 13.1 µM (inactive) | 2.98 µM (inactive) | – | 6.32 µM (inactive) | 2.23 µM (inactive) | 6.34 µM (inactive) | 4.46 µM (inactive) | 4.58 µM (inactive) | 2.9 µM (inactive) | 6.15 µM (inactive) | 12.5 µM (inactive) | 13 µM (inactive) |
| Cc1ccc(NC(=S)NNC(=O)c2cc(-c3ccccc3)nc3ccccc23)cc1 | 13 µM (inactive) | 16.3 µM (inactive) | 15.7 µM (inactive) | 16 µM (inactive) | 10.8 µM (inactive) | – | 11.2 µM (inactive) | 18.5 µM (inactive) | 2.81 µM (inactive) | 4.26 µM (inactive) | 7.89 µM (inactive) | 4.59 µM (inactive) | 10.4 µM (inactive) | 16.2 µM (inactive) | 14 µM (inactive) | 24 µM (inactive) | 17.4 µM (inactive) | 6.35 µM (inactive) | 15.8 µM (inactive) |
| CC(C)=Nn1cnc(C(=N)C#N)c1N | > 100 µM (inactive) | > 100 µM (inactive) | > 100 µM (inactive) | > 100 µM (inactive) | > 100 µM (inactive) | – | > 100 µM (inactive) | – | – | > 100 µM (inactive) | > 100 µM (inactive) | > 100 µM (inactive) | > 10 µM (inactive) | – | > 100 µM (inactive) | > 100 µM (inactive) | – | > 100 µM (inactive) | > 100 µM (inactive) |
| S=C1NC2=C(COC/C2=C\c2ccccc2Cl)C(c2ccccc2Cl)N1 (stereo not given) | 36 µM (inactive) | 34.4 µM (inactive) | 48.8 µM (inactive) | 18.5 µM (inactive) | 6.98 µM (inactive) | 21.2 µM (inactive) | 16.4 µM (inactive) | > 100 µM (inactive) | 25.7 µM (inactive) | 32.7 µM (inactive) | 32.1 µM (inactive) | 5.26 µM (inactive) | 15.6 µM (inactive) | 33 µM (inactive) | 55.8 µM (inactive) | – | > 100 µM (inactive) | – | 51.4 µM (inactive) |
| CSC(=S)NN=C1CCCCC1 | 37.3 µM (inactive) | 21 µM (inactive) | 45.2 µM (inactive) | 47.1 µM (inactive) | – | 20.5 µM (inactive) | 33.8 µM (inactive) | 17.6 µM (inactive) | 18.7 µM (inactive) | – | 22.3 µM (inactive) | 0.165 µM (active) | 16 µM (inactive) | 24.4 µM (inactive) | 24.9 µM (inactive) | 47.6 µM (inactive) | 59 µM (inactive) | 14.6 µM (inactive) | 38.5 µM (inactive) |
| NCCC(N)C(=O)O (stereo not given) | > 100 µM (inactive) | > 100 µM (inactive) | > 100 µM (inactive) | > 100 µM (inactive) | – | > 100 µM (inactive) | > 100 µM (inactive) | > 100 µM (inactive) | > 100 µM (inactive) | > 100 µM (inactive) | > 100 µM (inactive) | > 100 µM (inactive) | > 100 µM (inactive) | > 100 µM (inactive) | > 100 µM (inactive) | > 100 µM (inactive) | > 100 µM (inactive) | > 100 µM (inactive) | > 100 µM (inactive) |
| CCCCCCCC(CC(=O)NC(CO)C(=O)NC(CO)CC(C)C)OC(=O)CC(CCCCCCC)OC(=O)CC(CCCCCCC)OC1OC(C)C(O)C(OC2OC(C)C(O)C(O)C2OC(C)=O)C1O (stereo not given) | 5 µM (inactive) | 15.5 µM (inactive) | 12.5 µM (inactive) | 2.04 µM (inactive) | 12.5 µM (inactive) | – | 10.5 µM (inactive) | 9.38 µM (inactive) | 2.75 µM (inactive) | 3.46 µM (inactive) | 12.9 µM (inactive) | – | 10.1 µM (inactive) | 4.47 µM (inactive) | 13.3 µM (inactive) | 3.6 µM (inactive) | 4.51 µM (inactive) | 10.9 µM (inactive) | 5.89 µM (inactive) |
